Publication PMC10606834, “Is the Neuropeptide PEN a Ligand of GPR83?” (International Journal of Molecular Sciences, 2023)

Assays:
[1] = tested on: HEK293 cells; details: some batches of HEK293 cells; ref [10]; cited from earlier work
Excerpt: (§1) While the earlier study employed CHO cells from Cricetulus griseus and Neuro2A cells from Mus musculus overexpressing human GPR83 [10], this study used human HEK293 and U2OS c ...

[2] = tested on: GPR83 (CHO and Neuro2A cells); details: CHO and Neuro2A cells overexpressing human GPR83; ref [10]; cited from earlier work
Excerpt: as §1

[3] = tested on: GPR83 and GPR83del (HEK293 and U2OS clones; wild-type cells as comparison); assay: Ligand-dependent cAMP formation; format: cell-based, human
Procedure: Production of cyclic adenosine monophosphate (cAMP) is a hallmark of GPCRs signaling via the Gs-induced pathway. To investigate the potential of PEN to stimulate cAMP production mediated by GPR83, levels of the second messenger were determined after incubation with PEN of various GPR83-overexpressing clones as well as wild-type HEK293 and U2OS cells.
Figure 3 Analysis of ligand-dependent, GPR83-mediated cAMP production. (A) Wild-type HEK293 and U2OS cells as well as various clones with confirmed overexpression of either GPR83 or the deletion variant GPR83del (both ± HA tag) were incubated with either buffer, 1 µM PEN, or 50 µM forskolin. (B) Selected GPR83-overexpressing HEK293 clones were assayed for cAMP production using different concentrations of PEN. (C) Selected GPR83-overexpressing U2OS clones were assayed for cAMP production using different concentrations of PEN.
To measure intracellular cAMP production, the LANCE Ultra cAMP kit (Perkin Elmer) was used according to the manufacturer’s instructions. The day before the experiment, cells were seeded onto a 96-well plate with approximately 80% confluence. After 16–24 h, the medium was removed, and 100 μL/well of serum-free medium was added, followed by a 3 h incubation. Thereafter, medium was removed, and 40 μL of ligand dissolved in cAMP stimulation buffer was pipetted onto cells, then incubated for 10 min. The ligands used were pipetted in duplicate. For concentration–response curves, serial dilutions were carried out from the stock solutions of 1 mM to create a concentration range from 1 µM to 30 pM. As controls, 4 wells were treated with buffer only (negative control) and 4 wells with 50 μM forskolin (positive control). After a 10 min incubation, 10 μL of a 0.5% Triton-X 100 solution in PBS was added to each well. To lyse cells, the plate was shaken on a Vibramax 100 Shaker (Heidolph, Kelheim, Germany) (750 rpm) at room temperature for 10 min. A 10 μL volume of the cell lysates were transferred into a white 384 well plate (ProxiPlate, PerkinElmer). A 5 μL volume of the Europium-cAMP tracer (1 to 50 dilution of Eu-tracer stock in cAMP detection buffer) was added to each well. Next, 5 μL of the ULight-anti-cAMP solution (1 to 150 dilution of ULight-tracer stock in cAMP detection buffer) was added to each well. After a 1 h incubation period at room temperature in the dark, the TR-FRET signal was measured using an EnVision 2103 Multilabel Reader (Perkin Elmer).

[4] = tested on: ERK1/2 phosphorylation in HEK293 cells overexpressing GPR83 or GPR83del; assay: ERK1/2 phosphorylation (immunoblot), GPR83 cells; format: cell-based, human
Excerpt: Apart from G protein-mediated second messenger signaling via Ca^2+ and cAMP, GPCR stimulation may also lead to activation of β-arrestin and phosphorylation of extracellular signal-regulated kinases 1/2 (ERK1/2). Immunoblot analysis was employed to investigate ligand-dependent phosphorylation of ERK1/2 in HEK293 cells overexpressing GPR83 or the deletion variant GPR83del as well as in wild-type HEK293 cells.
Figure 4 Ligand-dependent phosphorylation of ERK1/2 and β-arrestin (TANGO) assay. (A) Immunoblot detection of phosphorylated (upper blot) and total (lower blot) ERK1/2 in lysates of HEK293 wild-type cells and in HEK293 cells overexpressing GPR83 or GPR83del. (B) Quantification (mean ± SD of n = 2 independent experiments) of chemiluminescent readout of the immunoblots shown in (A). (C) TANGO assay for ligand-induced β-arrestin activity in HTLA cells overexpressing GPR83 (relative light units, RLU). (D) TANGO assay for ligand-induced β-arrestin activity in HTLA cells overexpressing bradykinin receptor BDKBR2.
4.7. ERK1/2 Phosphorylation Assay
Effects of GPCR ligands on MAPK signaling were assessed with Western blot analysis of lysates from stimulated cells. The ERK1/2 activation assay was performed as described before. Briefly, 50,000 cells per well were seeded onto adherent 6-well plates and cultured until cells were 80% confluent. After incubation with ligands (10 µM PEN #1 and 100 ng/mL EGF or 200 nM PMA in 0.1% FCS/DMEM) for 15 min, cells were lysed using 200 µL/well cell lysis buffer (100 mM Tris-HCl pH 8.8, 1% SDS) and protease inhibitors (cOmplete, Roche, Basel, Switzerland) on ice for one hour. Immunolabeling was realized using the rabbit monoclonal primary antibody anti-phospho-ERK1/2 Thr^202/Tyr^204 (#4370, Cell Signaling Technologies, Danvers, MA, USA, 1:2000), or anti-total ERK1/2 (#05-1152; Millipore, Burlington, VT, USA; 1:2000), respectively. Blots were analyzed using densitometric quantification using Image Lab Software v4.1 (Bio-Rad).

In the case of “AADHDVGSELPPEGVLGALLRV [PEN, batch #1 synthesized, batch #2 purchased from Phoenix Pharmaceuticals]”, the “response of HEK293 cells” value [1] is listed as “had not responded to PEN”, the “GPR83-mediated cAMP signaling” value [2] is listed as “Modification of GPR83-mediated cAMP signaling by PEN has been previously reported” and the cAMP levels ([3]; 1 µM PEN or 50 µM forskolin, GPR83-overexpressing clones and wild-type HEK293 and U2OS cells, 10 min incubation, LANCE Ultra cAMP kit, TR-FRET competition, duplicate) is listed as “did not change it”. For the same sequence, the “cAMP formation, concentration-response” value ([3]; titration 50 pM to 1 µM, selected GPR83-expressing HEK293 and U2OS clones, LANCE Ultra cAMP kit, TR-FRET, 10 min incubation, duplicate) was “did not indicate PEN-dependent cAMP formation”, the “increased (via Gs) or decreased (via Gi) production of cAMP” value ([3]; up to 1 µM PEN, multiple clones of GPR83-overexpressing HEK293 and U2OS cells) was “did not reveal any evidence for an increased (via Gs) or decreased (via Gi) production of cAMP” and the “phosphorylation of ERK1/2” value ([4]; 10 µM PEN #1, 100 ng/mL EGF or 200 nM PMA, 15 min, HEK293 overexpressing GPR83 or GPR83del as well as wild-type HEK293, n = 2 independent experiments) was “substantially induced phosphorylation of ERK1/2”. For the same sequence, the “phosphorylation of ERK1/2, GPR83 or GPR83del cells versus wild-type” value ([4]; 10 µM PEN #1, 15 min, n = 2) was “equally strong ERK1/2 phosphorylation in wild-type HEK293 cells as well as in HEK293 cells overexpressing GPR83 or GPR83del”.
